Among the data in ChEMBL document CHEMBL1147529, “Discovery and optimization of 2-aryl oxazolo-pyrimidines as adenosine kinase inhibitors using liquid phase parallel synthesis” (Bioorg Med Chem Lett, 2004) are IC50 values, retold here.

Molecules are shown by their SMILES.

The assay deals with Adenosine kinase (Homo sapiens, UniProt P55263). In words: Inhibitory activity against human adenosine kinase expressed in Escherichia coli.
Sequence of Adenosine kinase (P55263 whole entry): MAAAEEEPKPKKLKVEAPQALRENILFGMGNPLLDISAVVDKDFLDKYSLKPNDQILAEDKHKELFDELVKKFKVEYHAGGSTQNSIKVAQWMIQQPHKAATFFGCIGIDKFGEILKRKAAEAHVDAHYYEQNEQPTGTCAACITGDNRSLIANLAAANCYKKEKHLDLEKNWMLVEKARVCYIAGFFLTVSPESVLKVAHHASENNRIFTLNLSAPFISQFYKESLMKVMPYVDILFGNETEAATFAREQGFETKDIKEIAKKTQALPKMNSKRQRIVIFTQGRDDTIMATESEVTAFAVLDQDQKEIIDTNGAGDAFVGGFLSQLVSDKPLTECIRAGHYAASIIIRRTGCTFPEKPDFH
As a reminder, the IC50 is the point on the concentration scale where inhibition reaches its midpoint. Take `O=C(Nc1cccc(-c2nc3c(N4CC5CCN(Cc6ccccc6)C5C4)ncnc3o2)c1)C1CC1` (configuration not stated): the IC50 stood at 60 nM.

As for `O=C(Nc1ccc(-c2nc3c(N4CC5CCN(Cc6ccccc6)C5C4)ncnc3o2)cc1)c1ccc(F)cc1` (configuration not stated), the IC50 is 130 nM.

Compound `CCCCNc1ncnc2oc(-c3ccccc3)nc12` registered an IC50 of over 10000 nM.

Compound `c1ccc(CN2CCC3CN(c4ncnc5oc(-c6ccccc6)nc45)CC32)cc1` (configuration not stated) returned an IC50 of 200 nM. In other words, the sub-micromolar range. Take `c1ccc(CN2CCN(c3ncnc4oc(-c5ccccc5)nc34)CC2)cc1`: the IC50 is over 10000 nM.

As to `O=C(Nc1cccc(-c2nc3c(N4CC5CCN(Cc6ccccc6)C5C4)ncnc3o2)c1)c1ccccc1` (configuration not stated), the IC50 worked out at 90 nM. Under `COCC(=O)Nc1cccc(-c2nc3c(N4CC5CCN(Cc6ccccc6)C5C4)ncnc3o2)c1` (configuration not stated) stands 40 nM; under `CN(CCCNc1ncnc2oc(-c3ccccc3)nc12)c1ccccc1`, 270 nM; under `c1ccc(CN2CC[C@@H]3CN(c4ncnc5oc(-c6ccccc6)nc45)C[C@@H]32)cc1`, 120 nM. Under `c1ccc(CN2C[C@@H]3CCCN(c4ncnc5oc(-c6ccccc6)nc45)[C@@H]3C2)cc1` stands 1000 nM. Under `c1ccc(CCCNc2ncnc3oc(-c4ccccc4)nc23)cc1` stands 230 nM; under `c1ccc(CN2CCC3CN(c4ncnc5oc(-c6ccc(-c7cccs7)cc6)nc45)CC32)cc1` (configuration not stated), 90 nM; under `CN(C)c1ccc(-c2nc3c(N4CC5CCN(Cc6ccccc6)C5C4)ncnc3o2)cn1` (configuration not stated), 10 nM.

As to `c1ccc(CN2CCC3CN(c4ncnc5oc(-c6ccncc6)nc45)CC32)cc1` (configuration not stated), the IC50 was over 1000 nM. Under `c1ccc(CN2CC3CN(c4ncnc5oc(-c6ccccc6)nc45)CC3C2)cc1` (configuration not stated) stands over 10000 nM. Under `Brc1cccc(-c2nc3c(N4CC5CCN(Cc6ccccc6)C5C4)ncnc3o2)c1` (configuration not stated) stands 260 nM. Under `c1ccc(CN2CCC3CN(c4ncnc5oc(-c6cccnc6)nc45)CC32)cc1` (configuration not stated) stands 130 nM; under `COCCNc1ncnc2oc(-c3ccccc3)nc12`, over 10000 nM; under `O=C(Cc1ccccc1)Nc1cccc(-c2nc3c(N4CC5CCN(Cc6ccccc6)C5C4)ncnc3o2)c1` (configuration not stated), 210 nM.

Compound `Fc1ccc(CN2CCCN(c3ncnc4oc(-c5ccccc5)nc34)CC2)cc1` gave an IC50 of over 1000 nM. The compound `O=C(Nc1ccc(-c2nc3c(N4CC5CCN(Cc6ccccc6)C5C4)ncnc3o2)cc1)c1ccc(C(F)(F)F)cc1` (configuration not stated) registered an IC50 of over 10000 nM. Take `Brc1ccc(-c2nc3c(N4CC5CCN(Cc6ccccc6)C5C4)ncnc3o2)cc1` (configuration not stated): the IC50 worked out at 240 nM. That is a sub-micromolar value. `O=C(Nc1ccc(-c2nc3c(N4CC5CCN(Cc6ccccc6)C5C4)ncnc3o2)cc1)c1ccccc1` (configuration not stated) returned an IC50 of 70 nM. Under `Fc1ccc(-c2ccc(-c3nc4c(N5CC6CCN(Cc7ccccc7)C6C5)ncnc4o3)cc2)cc1` (configuration not stated) stands over 10000 nM; under `Nc1ccc(-c2nc3c(N4CC5CCN(Cc6ccccc6)C5C4)ncnc3o2)cc1` (configuration not stated), 50 nM; under `Nc1ncnc2nc(-c3ccc(N4CCOCC4)nc3)cc(-c3cccc(Br)c3)c12`, 10 nM.

`O=C(Nc1ccc(-c2nc3c(N4CC5CCN(Cc6ccccc6)C5C4)ncnc3o2)cc1)C1CC1` (configuration not stated) returned an IC50 of 30 nM. Under `O=C(Cc1ccccc1)Nc1ccc(-c2nc3c(N4CC5CCN(Cc6ccccc6)C5C4)ncnc3o2)cc1` (configuration not stated) stands 70 nM.

As for `COCC(=O)Nc1ccc(-c2nc3c(N4CC5CCN(Cc6ccccc6)C5C4)ncnc3o2)cc1` (configuration not stated), inhibition was half-maximal at 40 nM (IC50). This IC50 is about 1.8-fold lower than that of the compound before. Under `O=C(Nc1cccc(-c2nc3c(N4CC5CCN(Cc6ccccc6)C5C4)ncnc3o2)c1)c1ccc(C(F)(F)F)cc1` (configuration not stated) stands over 10000 nM; under `O=C(Nc1cccc(-c2nc3c(N4CC5CCN(Cc6ccccc6)C5C4)ncnc3o2)c1)c1ccc(F)cc1` (configuration not stated), 200 nM; under `Clc1ccc(-c2nc3c(N4CC5CCN(Cc6ccccc6)C5C4)ncnc3o2)cn1` (configuration not stated), 70 nM.
